Here are results for 13 compounds from patent US20260022142A1, “MACROCYCLIC IMMUNOMODULATORS” (Bristol-Myers Squibb Company, priority 2022, published 2026).

Numbered stars: 1 amine (or outer) side, 2 acyl side, 3 side chain; on linkers, the order of the positions; unused ones are H or OH. Bridge positions count the residues as written; N and C are the ends. Square brackets hold non-standard residues; d marks the D form. Peptide text beside a SMILES is read from it. * marks the point of attachment. ξ: configuration not given here. Phe(4-COOH) = N[C@@H](Cc1ccc(C(=O)O)cc1)C(=O)O; Bip = N[C@@H](Cc1ccc(-c2ccccc2)cc1)C(=O)O; Phe(3-Me) = Cc1cccc(C[C@H](N)C(=O)O)c1; βAsp = O=C(O)[C@H](CC(=O)[*:2])N[*:1]; PEG6 = NCCOCCOCCOCCOCCOCCOCCC(=O)O; X12 = CC(N)[C@H](N[*:1])C(=O)[*:2]; hArg = N=C(N)NCCCC[C@H](N)C(=O)O; 4Pal = N[C@@H](Cc1ccncc1)C(=O)O; Cha = N[C@@H](CC1CCCCC1)C(=O)O; Cit = NC(=O)NCCC[C@H](N)C(=O)O; Ile(3ξ) = CCC(C)[C@H](N)C(=O)O; Thr(3ξ) = CC(O)[C@H](N)C(=O)O; 12Ado = NCCCCCCCCCCCC(=O)O; Carboxymethyl = O=C(O)C*; Orn = NCCC[C@H](N)C(=O)O; Aun = NCCCCCCCCCCC(=O)O; Dab = NCC[C@H](N)C(=O)O; AEEA = NCCOCCOCC(=O)O

This experiment deals with T1, PD-1/PD-L1 interaction (PE-labeled human PD-L1-Ig binding to Jurkat cell line over-expressing human PD-1) (Homo sapiens, UniProt Q15116).
T1 construct: expressed in transfected cells; host or cells: Jurkat
T1 sequence (Q15116 25-288): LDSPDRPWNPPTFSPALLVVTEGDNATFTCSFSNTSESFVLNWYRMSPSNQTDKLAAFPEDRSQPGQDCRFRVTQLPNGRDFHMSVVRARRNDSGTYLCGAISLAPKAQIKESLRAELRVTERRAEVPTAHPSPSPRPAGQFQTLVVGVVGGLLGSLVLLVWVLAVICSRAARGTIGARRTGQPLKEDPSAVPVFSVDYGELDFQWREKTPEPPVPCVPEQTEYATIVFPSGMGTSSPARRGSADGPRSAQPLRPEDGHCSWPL
Kind of experiment: Jurkat-PD-1 Cell Binding High-Content Screening Assay (CBA). Type of experiment: cell-based. The note with it: Jurkat cell line over-expressing human PD-1; PE-labeled PD-L1-Ig 20 nM final; read-out: Jurkat hPD1-PDL1 IC50. The gist of the method: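 Jurkat-hPD-1 cells, DMEM/10% FCS; cpd 2 h 37° C; PE-PD-L1-Ig 20 nM final, 1 h; 4% PFA fix + Hoechst 33342, 3× dPBS wash; high-content imaging read-out.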
In general, IC50 refers to the concentration at which inhibition is half-maximal. For `CC(C)C[C@H]1NC(=O)[C@H](CCCN)NC(=O)[C@H](CCC(=O)O)NC(=O)[C@H](Cc2ccc(-c3ccccc3)cc2)NC(=O)[C@H](C(C)C)NC(=O)[C@H](Cc2c[nH]c3ccccc23)NC(=O)[C@H](CC(=O)O)NC(=O)[C@H](Cc2ccc(C(=O)O)cc2)NC(=O)[C@H](Cc2ccc(OCC(=O)O)cc2)NC(=O)CSC[C@@H](C(=O)N[C@@H](CC(N)=O)C(=O)NCCOCCOCCOCCOCCOCCOCCC(=O)N[C@@H](CCCN)C(=O)NCCCCCCCCCCCC(=O)O)NC(=O)[C@H](CO)NC(=O)[C@H](C(C)C)NC(=O)[C@H](CC2CCCCC2)NC(=O)[C@H](CCN)NC1=O` [Compound 3045] ({CH2CO}-Y(Carboxymethyl)[Phe(4-COOH)]DWV[Bip]E[Orn][dL][Dab][Cha]VSCN[PEG6][Orn][12Ado]-OH; thioether N-14), the IC50 was found to be 6.4 nM.
Then `CC(C)C[C@H]1NC(=O)[C@H](CCCN)NC(=O)[C@H](CCC(=O)O)NC(=O)[C@H](Cc2ccc(-c3ccccc3)cc2)NC(=O)[C@H](C(C)C)NC(=O)[C@H](Cc2c[nH]c3ccccc23)NC(=O)[C@H](CC(=O)O)NC(=O)[C@H](Cc2ccc(C(=O)O)cc2)NC(=O)[C@H](C(C)N)NC(=O)CSC[C@@H](C(=O)N[C@@H](CC(N)=O)C(=O)NCCOCCOCCOCCOCCOCCOCCC(=O)N[C@@H](CCCN)C(=O)NCCCCCCCCCCCC(=O)O)NC(=O)[C@H](CO)NC(=O)[C@H](C(C)C)NC(=O)[C@H](CC2CCCCC2)NC(=O)[C@H](CCN)NC1=O` (stereo partly drawn) [Compound 3046] ({CH2CO}-[X12][Phe(4-COOH)]DWV[Bip]E[Orn][dL][Dab][Cha]VSCN[PEG6][Orn][12Ado]-OH; thioether N-14), with 13.1 nM; and `Cc1cccc(C[C@@H]2NC(=O)[C@H](CC(=O)O)NC(=O)[C@H](Cc3ccc(OCC(=O)O)cc3)NC(=O)[C@H](CCN)NC(=O)CSC[C@@H](C(=O)NCCOCCOCC(=O)NCCCCCCCCCCC(=O)O)NC(=O)[C@H](C(C)O)NC(=O)[C@H](C(C)C)NC(=O)[C@H](CC3CCCCC3)NC(=O)[C@H](CCN)NC(=O)[C@@H](CC(C)C)NC(=O)[C@H](CCCN)NC(=O)[C@H](CCCNC(N)=O)NC(=O)[C@H](Cc3ccc(-c4ccccc4)cc3)NC(=O)[C@H](C(C)C)NC2=O)c1` (stereo partly drawn) [Compound 3047] ({CH2CO}-[Dab]Y(Carboxymethyl)D[Phe(3-Me)]V[Bip][Cit][Orn][dL][Dab][Cha]V[Thr(3ξ)]C[AEEA][Aun]-OH; thioether N-14), with 13.3 nM; and `CC(C)C[C@H]1NC(=O)[C@H](CCCN)NC(=O)[C@H](C(C)C)NC(=O)[C@H](Cc2ccc(-c3ccccc3)cc2)NC(=O)[C@H](C(C)C)NC(=O)[C@H](Cc2c[nH]c3ccccc23)NC(=O)[C@H](CC(=O)O)NC(=O)[C@H](Cc2ccc(OCC(=O)O)cc2)NC(=O)[C@H](Cc2ccncc2)NC(=O)CSC[C@@H](C(=O)NCCOCCOCC(=O)NCCCCCCCCCCC(=O)O)NC(=O)[C@H](C(C)O)NC(=O)[C@H](C(C)C)NC(=O)[C@H](CC2CCCCC2)NC(=O)[C@H](CCN)NC1=O` (stereo partly drawn) [Compound 3048] ({CH2CO}-[4Pal]Y(Carboxymethyl)DWV[Bip]V[Orn][dL][Dab][Cha]V[Thr(3ξ)]C[AEEA][Aun]-OH; thioether N-14), with 23.2 nM.
With `Cc1cccc(C[C@@H]2NC(=O)[C@H](CC(=O)O)NC(=O)[C@H](Cc3ccc(OCC(=O)O)cc3)NC(=O)[C@H](CCCNC(N)=O)NC(=O)CSC[C@@H](C(=O)N[C@@H](CCCN)C(=O)NCCCCCCCCCCC(=O)O)NC(=O)[C@H](CO)NC(=O)[C@H](C(C)C)NC(=O)[C@H](CC3CCCCC3)NC(=O)[C@H](CCN)NC(=O)[C@@H](CC(C)C)NC(=O)[C@H](CCCN)NC(=O)[C@H](C(C)C)NC(=O)[C@H](Cc3ccc(-c4ccccc4)cc3)NC(=O)[C@H](C(C)C)NC2=O)c1` [Compound 3049] ({CH2CO}-[Cit]Y(Carboxymethyl)D[Phe(3-Me)]V[Bip]V[Orn][dL][Dab][Cha]VSC[Orn][Aun]-OH; thioether N-14), the IC50 is 39.5 nM.
Next, `CC(C)C[C@H]1NC(=O)[C@H](CCCN)NC(=O)[C@H](C(C)C)NC(=O)[C@H](Cc2ccc(-c3ccccc3)cc2)NC(=O)[C@H](C(C)C)NC(=O)[C@H](Cc2c[nH]c3ccccc23)NC(=O)[C@H](CC(=O)O)NC(=O)[C@H](Cc2ccc(OCC(=O)O)cc2)NC(=O)[C@H](C(C)O)NC(=O)CSC[C@@H](C(=O)NCCOCCOCC(=O)N[C@@H](CCCCN)C(=O)NCCCCCCCCCCC(=O)O)NC(=O)[C@H](C(C)O)NC(=O)[C@H](C(C)C)NC(=O)[C@H](CC2CCCCC2)NC(=O)[C@H](CCN)NC1=O` (stereo partly drawn) [Compound 3052] ({CH2CO}-[Thr(3ξ)]Y(Carboxymethyl)DWV[Bip]V[Orn][dL][Dab][Cha]V[Thr(3ξ)]C[AEEA]K[Aun]-OH; thioether N-14): 10.1 nM; `CC(C)C[C@H]1NC(=O)[C@H](CCCN)NC(=O)[C@H](C(C)C)NC(=O)[C@H](Cc2ccc(-c3ccccc3)cc2)NC(=O)[C@H](C(C)C)NC(=O)[C@H](Cc2c[nH]c3ccccc23)NC(=O)[C@H](CC(=O)O)NC(=O)[C@H](Cc2ccc(OCC(=O)O)cc2)NC(=O)[C@H](C(C)O)NC(=O)CSC[C@@H](C(=O)N[C@H](CC(N)=O)C(=O)NCCOCCOCC(=O)NCCCCCCCCCCC(=O)O)NC(=O)[C@H](CO)NC(=O)[C@H](C(C)C)NC(=O)[C@H](CC2CCCCC2)NC(=O)[C@H](CCN)NC1=O` (stereo partly drawn) [Compound 3053] ({CH2CO}-[Thr(3ξ)]Y(Carboxymethyl)DWV[Bip]V[Orn][dL][Dab][Cha]VSC[dN][AEEA][Aun]-OH; thioether N-14): 8.8 nM.
Turning to `CC(C)C[C@H]1NC(=O)[C@H](CCCN)NC(=O)[C@H](C(C)C)NC(=O)[C@H](Cc2ccc(-c3ccccc3)cc2)NC(=O)[C@H](C(C)C)NC(=O)[C@H](Cc2c[nH]c3ccccc23)NC(=O)[C@H](CC(=O)O)NC(=O)[C@H](Cc2ccc(OCC(=O)O)cc2)NC(=O)[C@H](Cc2c[nH]cn2)NC(=O)CSC[C@@H](C(=O)N[C@H](C)C(=O)NCCOCCOCC(=O)NCCCCCCCCCCC(=O)O)NC(=O)[C@H](C(C)O)NC(=O)[C@H](C(C)C)NC(=O)[C@H](CC2CCCCC2)NC(=O)[C@H](CCN)NC1=O` (stereo partly drawn) [Compound 3054] ({CH2CO}-HY(Carboxymethyl)DWV[Bip]V[Orn][dL][Dab][Cha]V[Thr(3ξ)]C[dA][AEEA][Aun]-OH; thioether N-14), the IC50 amounted to 14.6 nM.
Next, `CC(C)C[C@H]1NC(=O)[C@H](CCCN)NC(=O)[C@H](Cc2c[nH]cn2)NC(=O)[C@H](Cc2ccc(-c3ccccc3)cc2)NC(=O)[C@H](C(C)C)NC(=O)[C@H](Cc2c[nH]c3ccccc23)NC(=O)[C@H](CC(=O)O)NC(=O)[C@H](Cc2ccc(OCC(=O)O)cc2)NC(=O)[C@H](C(C)O)NC(=O)CSC[C@@H](C(=O)N[C@@H](CC(=O)NCCOCCOCC(=O)N[C@@H](CCCN)C(=O)NCCCCCCCCCCC(=O)O)C(=O)O)NC(=O)[C@H](CO)NC(=O)[C@H](C(C)C)NC(=O)[C@H](CC2CCCCC2)NC(=O)[C@H](CCN)NC1=O` (stereo partly drawn) [Compound 3056] ({CH2CO}-[Thr(3ξ)]Y(Carboxymethyl)DWV[Bip]H[Orn][dL][Dab][Cha]VSC[βAsp][AEEA][Orn][Aun]-OH; thioether N-14): 17.7 nM; `CC(C)C[C@H]1NC(=O)[C@H](CCCN)NC(=O)[C@H](Cc2c[nH]cn2)NC(=O)[C@H](Cc2ccc(-c3ccccc3)cc2)NC(=O)[C@H](C(C)C)NC(=O)[C@H](Cc2c[nH]c3ccccc23)NC(=O)[C@H](CC(=O)O)NC(=O)[C@H](Cc2ccc(OCC(=O)O)cc2)NC(=O)[C@H](Cc2ccccc2)NC(=O)CSC[C@@H](C(=O)N[C@@H](CCCN)C(=O)NCCOCCOCC(=O)NCCCCCCCCCCC(=O)O)NC(=O)[C@H](CO)NC(=O)[C@H](C(C)C)NC(=O)[C@H](CC2CCCCC2)NC(=O)[C@H](CCN)NC1=O` [Compound 3057] ({CH2CO}-FY(Carboxymethyl)DWV[Bip]H[Orn][dL][Dab][Cha]VSC[Orn][AEEA][Aun]-OH; thioether N-14): 53.9 nM; `CCC(C)[C@@H]1NC(=O)[C@H](Cc2ccc(-c3ccccc3)cc2)NC(=O)[C@H](C(C)C)NC(=O)[C@H](Cc2c[nH]c3ccccc23)NC(=O)[C@H](CC(=O)O)NC(=O)[C@H](Cc2ccc(C(=O)O)cc2)NC(=O)[C@H](Cc2ccncc2)NC(=O)CSC[C@@H](C(=O)N[C@H](CC(N)=O)C(=O)NCCOCCOCC(=O)N[C@@H](CCCN)C(=O)NCCCCCCCCCCC(=O)O)NC(=O)[C@H](CO)NC(=O)[C@H](C(C)C)NC(=O)[C@H](CC2CCCCC2)NC(=O)[C@H](CCN)NC(=O)[C@@H](CC(C)C)NC(=O)[C@H](CCCN)NC1=O` (stereo partly drawn) [Compound 3058] ({CH2CO}-[4Pal][Phe(4-COOH)]DWV[Bip][Ile(3ξ)][Orn][dL][Dab][Cha]VSC[dN][AEEA][Orn][Aun]-OH; thioether N-14): 13 nM.
For the compound `CCC(C)[C@@H]1NC(=O)[C@H](Cc2ccc(-c3ccccc3)cc2)NC(=O)[C@H](C(C)C)NC(=O)[C@H](Cc2c[nH]c3ccccc23)NC(=O)[C@H](CC(=O)O)NC(=O)[C@H](Cc2ccc(C(=O)O)cc2)NC(=O)[C@H](Cc2ccncc2)NC(=O)CSC[C@@H](C(=O)N[C@H](CO)C(=O)NCCOCCOCC(=O)N[C@@H](CCCN)C(=O)NCCCCCCCCCCC(=O)O)NC(=O)[C@H](CO)NC(=O)[C@H](C(C)C)NC(=O)[C@H](CC2CCCCC2)NC(=O)[C@H](CCN)NC(=O)[C@@H](CC(C)C)NC(=O)[C@H](CCCN)NC1=O` (stereo partly drawn) [Compound 3059] ({CH2CO}-[4Pal][Phe(4-COOH)]DWV[Bip][Ile(3ξ)][Orn][dL][Dab][Cha]VSC[dS][AEEA][Orn][Aun]-OH; thioether N-14), the IC50 was 12.2 nM.
Next, `CCC(C)[C@@H]1NC(=O)[C@H](Cc2ccc(-c3ccccc3)cc2)NC(=O)[C@H](C(C)C)NC(=O)[C@H](Cc2c[nH]c3ccccc23)NC(=O)[C@H](CC(=O)O)NC(=O)[C@H](Cc2ccc(OCC(=O)O)cc2)NC(=O)[C@H](CCCCNC(=N)N)NC(=O)CSC[C@@H](C(=O)N[C@H](CO)C(=O)NCCOCCOCC(=O)NCCCCCCCCCCC(=O)O)NC(=O)[C@H](CO)NC(=O)[C@H](C(C)C)NC(=O)[C@H](CC2CCCCC2)NC(=O)[C@H](CCN)NC(=O)[C@@H](CC(C)C)NC(=O)[C@H](CCCN)NC1=O` (stereo partly drawn) [Compound 3060] ({CH2CO}-[hArg]Y(Carboxymethyl)DWV[Bip][Ile(3ξ)][Orn][dL][Dab][Cha]VSC[dS][AEEA][Aun]-OH; thioether N-14): 17.8 nM.
